Earlier results as cited in PubChem BioAssay AID1259409 (Chemical Carcinogenesis Research Information System (CCRIS), 2018).
Where “and” joins values, the source holds several entries; their conditions need not be identical. Identical values can stand only once.

System: rodent chemically induced tumor inhibition, incidence and multiplicity
Test: CCRIS tumor inhibitor studies

CCCCC/C=C/CC/C=C/CCCCCCC(=O)O
tumour outcome (control, treated, inhibition, significance) (Carcinogen: BENZO[A]PYRENE, 50-32-8, Dose [Inhibitor]: 0, 0.1 ML IN 0.1 ML OLIVE OIL 4 AND 2 D PRIOR TO CARCINOGEN DOSE (CYCLE REPEATED 4 X) (STUDY DURATION: 23 WK), Route [Inhibitor]: GAVAGE, Species: MOUSE, Strain/Sex: ICR/FEMALE, Target Tissue: Type of Lesion: STOMACH: PAPILLOMA, Dose [Carcinogen]: 2 MG IN 0.2 ML OLIVE OIL 1/WK FOR 4 WK): 91%, 71%, 22%, p<0.05 and 96%, 96%, 0% and 100%, 71%, 29%, p<0.05

O=c1[nH]c(=O)c2[nH]cnc2[nH]1
tumour outcome (control, treated, inhibition, significance) (Carcinogen: URETHANE, 51-79-6, Dose [Inhibitor]: 0.05 UMOL/G BW GIVEN AT 6 HR INTERVALS FOR 36 HR AFTER CARCINOGEN TREATMENT (STUDY DURATION: 5 MO), Route [Inhibitor]: INTRAPERITONEAL, Species: MOUSE, Strain/Sex: ICR/FEMALE, Target Tissue: Type of Lesion: LUNG: PAPILLARY ADENOMA, Dose [Carcinogen]: 0.1 MG/G BW ONCE, Promoter: NONE USED): 31/59 (53%), 26/40 (65%), -23%, not significant

COc1c(O)cc(C2Oc3c(c(O)cc(O)c3[C@H]3c4c(O)cc(O)cc4O[C@H](c4ccc(O)cc4)[C@@H]3O)C[C@H]2O)cc1O (stereo partly specified)
tumour outcome (control, treated, inhibition, significance) (Carcinogen: DIMETHYLNITROSAMINE [62-75-9], Dose [Inhibitor]: 100 MG/KG BW FOR 3 MO ADMINISTERED BEFORE CARCINOGEN (STUDY DURATION: 12 MO), Route [Inhibitor]: DIET, Species: MOUSE, Strain/Sex: B6C3F1/MALE, Target Tissue: Type of Lesion: LIVER: TUMOR, Dose [Carcinogen]: 5 MG/KG BW 3 X A WK FOR 2 MO, THEN 10 MG/KG 2 X WK FOR 4 WKS AFTER 3 MO OF GSPE): 85% (dmn); 60% gspe before dmn, 29%, not calculated
tumour outcome (control, treated, inhibition, significance) (Carcinogen: DIMETHYLNITROSAMINE [62-75-9], Dose [Inhibitor]: 100 MG/KG BW FOR 9 MO AFTER CARCINOGEN TREATMENT (STUDY DURATION: 12 MO), Route [Inhibitor]: DIET, Species: MOUSE, Strain/Sex: B6C3F1/MALE, Target Tissue: Type of Lesion: LIVER: TUMOR, Dose [Carcinogen]: 5 MG/KG BW 3 X A WK FOR 2 MO, THEN 10 MG/KG 2 X WK FOR 1 MO): 85% (dmn); 55% gspe, 35%, not calculated
tumour outcome (control, treated, inhibition, significance) (Carcinogen: DIMETHYLNITROSAMINE [62-75-9], Dose [Inhibitor]: 100 MG/KG BW FOR DURATION OF EXPERIMENT (STUDY DURATION: 12 MO), Route [Inhibitor]: DIET, Species: MOUSE, Strain/Sex: B6C3F1/MALE, Target Tissue: Type of Lesion: LIVER: TUMOR, Dose [Carcinogen]: 5 MG/KG BW 3 X A WK FOR 2 MO, THEN 10 MG/KG 2 X WK FOR 4 WKS): 85% (dmn); 45% gspe, 47%, not calculated

CC1=C(/C=C/C(C)=C/C=C/C(C)=C/C=C/C=C(C)/C=C/C=C(\C)C=O)C(C)(C)CCC1
tumour outcome (control, treated, inhibition, significance) (Carcinogen: BENZO[A]PYRENE, 50-32-8, Dose [Inhibitor]: 0, 4.7 MICROMOLAR/D IN 0.1 ML PEANUT OIL BEGINNING 2 WK PRIOR TO CARCINOGEN TREATMENT AND CONTINUING TO 2 WK POST CARCIN, Route [Inhibitor]: GAVAGE, Species: MOUSE, Strain/Sex: SWISS/FEMALE, Target Tissue: Type of Lesion: FORESTOMACH: TUMOR, Dose [Carcinogen]: 1 MG 2/WK IN 0.1 ML PEANUT OIL FOR 4 WK, Promoter: NONE USED): 20/20 (100%), 5/20 (25%), 75%, p<0.001

CC(C)C(NC(=O)[C@@H]1CCCN1C(=O)[C@@H](NC(=O)c1ccc(C(=O)NS(=O)(=O)c2ccc(Br)cc2)cc1)C(C)C)C(=O)C(F)(F)F (stereo partly specified)
tumour outcome (control, treated, inhibition, significance) (Carcinogen: UV-B IRRADIATION, Dose [Inhibitor]: 0, 125 UG IN DMSO ADMINISTERED IMMEDIATELY PRIOR TO UV-B IRRADIATION AND 4 AND 24 HR POST IRRADIATION, CYCLE REPEATED 3/, Route [Inhibitor]: SUBCUTANEOUS, Species: MOUSE, Strain/Sex: SKH-1/FEMALE, Target Tissue: Type of Lesion: SKIN: CARCINOMA, Dose [Carcinogen]: 0.09 J/CM2 3/WK, Promoter: NONE USED): 5/5 (100%), 2/5 (40%), 60%, not calculated
tumour outcome (control, treated, inhibition, significance) (Carcinogen: UV-B IRRADIATION, Dose [Inhibitor]: 0, 125 UG IN DMSO ADMINISTERED IMMEDIATELY PRIOR TO UV-B IRRADIATION AND 4 AND 24 HR POST IRRADIATION, CYCLE REPEATED 3/, Route [Inhibitor]: SUBCUTANEOUS, Species: MOUSE, Strain/Sex: SKH-1/FEMALE, Target Tissue: Type of Lesion: SKIN: PAPILLOMA, Dose [Carcinogen]: 0.09 J/CM2 3/WK, Promoter: NONE USED): 5/5 (100%), 3/5 (60%), 40%, not calculated

COc1cc(C)c(/C=C/C(C)=C/C=C/C(C)=C/C(=O)O)c(C)c1C
tumour outcome (control, treated, inhibition, significance) (Carcinogen: N-METHYL-N-NITROSOUREA, 684-93-5, Dose [Inhibitor]: 75 MG/KG DIET DAILY FOR 55 WK STARTING 1 WK AFTER LAST CARCINOGEN EXPOSURE (STUDY DURATION: 65 WK), Route [Inhibitor]: ORAL, Species: HAMSTER, Strain/Sex: SYRIAN/MALE, Target Tissue: Type of Lesion: TRACHEA: TUMOR, Dose [Carcinogen]: 1% FOR 7 SECONDS 2/WK FOR 9 WK, Promoter: NONE USED): 30/37 (81%), 27/37 (73%), 10%, not significant
tumour outcome (control, treated, inhibition, significance) (Carcinogen: N-METHYL-N-NITROSOUREA, 684-93-5, Dose [Inhibitor]: 150 MG/KG DIET DAILY FOR 55 WK STARTING 1 WK AFTER LAST CARCINOGEN EXPOSURE (STUDY DURATION: 65 WK), Route [Inhibitor]: ORAL, Species: HAMSTER, Strain/Sex: SYRIAN/MALE, Target Tissue: Type of Lesion: TRACHEA: TUMOR, Dose [Carcinogen]: 1% FOR 7 SECONDS 2/WK FOR 9 WK, Promoter: NONE USED): 30/37 (81%), 24/38 (63%), 22%, not significant
tumour outcome (control, treated, inhibition, significance) (Carcinogen: N-METHYL-N-NITROSOUREA, 684-93-5, Dose [Inhibitor]: 150 MG/KG DIET DAILY FOR 55 WK STARTING 1 WK AFTER LAST CARCINOGEN EXPOSURE (STUDY DURATION: 66 WK), Route [Inhibitor]: ORAL, Species: HAMSTER, Strain/Sex: SYRIAN/MALE, Target Tissue: Type of Lesion: TRACHEA: TUMOR, Dose [Carcinogen]: 1% FOR 7 SECONDS 2/WK FOR 10 WK, Promoter: NONE USED): 32/38 (84%), 34/39 (87%), -4%, not significant
tumour outcome (control, treated, inhibition, significance) (Carcinogen: N-METHYL-N-NITROSOUREA, 684-93-5, Dose [Inhibitor]: 150 MG/KG DIET DAILY FOR 55 WK STARTING 1 WK AFTER LAST CARCINOGEN EXPOSURE (STUDY DURATION: 67.5 WK), Route [Inhibitor]: ORAL, Species: HAMSTER, Strain/Sex: SYRIAN/MALE, Target Tissue: Type of Lesion: TRACHEA: TUMOR, Dose [Carcinogen]: 1% FOR 7 SECONDS 2/WK FOR 11.5 WK, Promoter: NONE USED): 24/40 (60%), 24/40 (60%), 0%, not significant

c1ccc2c(c1)Oc1ccccc1O2
tumour outcome (control, treated, inhibition, significance) (Carcinogen: 7,12-DIMETHYLBENZ[A]ANTHRACENE, 57-97-6, Dose [Inhibitor]: 0, 17 NMOL 2/WK APPLIED 1 HR PRIOR TO EACH PROMOTER DOSE FOR 20 WK (STUDY DURATION: 21 WK), Route [Inhibitor]: DERMAL, Species: MOUSE, Target Tissue: Type of Lesion: SKIN: TUMOR, Dose [Carcinogen]: 390 NMOL ONCE, Promoter: 12-O-TETRADECANOYLPHORBOL-13-ACETATE, 16561-29-8): 100%, 73%, 27%, not calculated

CCCCCCCCCCCCC/C=C/[C@@H](O)[C@H](COP(=O)(O)OCC[N+](C)(C)C)NC=O
tumour outcome (control, treated, inhibition, significance) (Carcinogen: 1,2-DIMETHYLHYDRAZINE DIHYDROCHLORIDE, 306-37-6, Dose [Inhibitor]: 0, 0.025 G/100 G DIET FOR 28 WK BEGINNING 1 WK POST CARCINOGEN TREATMENT (STUDY DURATION: 59 WK), Route [Inhibitor]: ORAL, Species: MOUSE, Strain/Sex: CF-1/FEMALE, Target Tissue: Type of Lesion: COLON: TUMOR, Dose [Carcinogen]: 20 MG/KG BW 1/WK FOR 6 WK, Promoter: NONE USED): 7/15 (47%), 2/10 (20%), 57%, p=0.08
tumour outcome (control, treated, inhibition, significance) (Carcinogen: 1,2-DIMETHYLHYDRAZINE DIHYDROCHLORIDE, 306-37-6, Dose [Inhibitor]: 0, 0.05 G/100 G DIET FOR 28 WK BEGINNING 1 WK POST CARCINOGEN TREATMENT (STUDY DURATION: 59 WK), Route [Inhibitor]: ORAL, Species: MOUSE, Strain/Sex: CF-1/FEMALE, Target Tissue: Type of Lesion: COLON: TUMOR, Dose [Carcinogen]: 20 MG/KG BW 1/WK FOR 6 WK, Promoter: NONE USED): 7/15 (47%), 3/14 (21%), 55%, p=0.08
tumour outcome (control, treated, inhibition, significance) (Carcinogen: 1,2-DIMETHYLHYDRAZINE DIHYDROCHLORIDE, 306-37-6, Dose [Inhibitor]: 0, 0.1 G/100 G DIET FOR 28 WK BEGINNING 1 WK POST CARCINOGEN TREATMENT (STUDY DURATION: 59 WK), Route [Inhibitor]: ORAL, Species: MOUSE, Strain/Sex: CF-1/FEMALE, Target Tissue: Type of Lesion: COLON: TUMOR, Dose [Carcinogen]: 20 MG/KG BW 1/WK FOR 6 WK, Promoter: NONE USED): 7/15 (47%), 2/10 (20%), 57%, p=0.08
